Calls of active or inactive are those of the source. The rule behind the calls is not given here.
Assays:
[1] = growth inhibition of apl2Δ yeast, dose response, selectivity assay for post-Golgi transport modulator project, S. cerevisiae, secondary screen, background strain comparison (AID 789); settings: S. cerevisiae background (wild-type parent) strain growth inhibition
[2] = test system: S. cerevisiae apl2Δ mutant growth inhibition; assay: as above

Row | Compound | IC50 [1] [µM] | IC50 [2]
1 | Fc1ccc(-c2noc(C3CCN(Cc4cccnc4)CC3)n2)cc1 | > 10 | > 10 µM (inactive)
2 | Cc1cc(Cl)cc(C)c1OCCCCN1CCOCC1 | > 10 | > 10 µM (inactive)
3 | COc1cccc(-c2cc(C(=O)N3CCN(C(c4ccccc4)c4ccccc4)CC3)no2)c1 | > 10 | > 10 µM (inactive)
4 | O=C(NCCSCc1ccc(Cl)cc1Cl)c1ccc(CN2CCOCC2)cc1 | > 10 | > 10 µM (inactive)
5 | COc1ccc(-c2nnc(CSc3nc4ccccc4c(=O)n3C)o2)cc1OC | > 10 | > 10 µM (inactive)
6 | O=C(NCC(=O)N(c1cccnc1)C(C(=O)NCc1ccco1)c1ccccc1)c1ccco1 (stereo unspecified) | > 10 | > 10 µM (inactive)
7 | Cc1ccc(-n2cc3c(-c4cccc(Br)c4)nnc(C)c3n2)cc1 | 13.5 | 15.4 µM (inactive)
8 | Cc1c(Cc2ccccc2)c(=O)oc2c(C)c(OCc3nn[nH]n3)ccc12 | > 10 | > 10 µM (inactive)
9 | CC(=O)c1cnc2nc(C)nn2c1C | > 10 | > 10 µM (inactive)
10 | OC(c1ccc(Cl)cc1Cl)C(Cc1cccnc1)n1cncn1 (stereo unspecified) | > 10 | > 10 µM (inactive)
11 | O=S(=O)(c1cnccc1N1CCN(/N=C/c2ccc(Br)cc2)CC1)N1CCCCC1 | > 10 | > 10 µM (inactive)
12 | Cc1ccc(C)c(NS(=O)(=O)c2cc(C(=O)N3CCc4ccccc4C3)ccc2Cl)c1 | 6.88 | 5.74 µM
13 | CCC(=O)N(CCO)Cc1cc2ccc(C)c(C)c2[nH]c1=O | > 10 | > 10 µM (inactive)
14 | COc1ccc(C(=O)c2c(C(F)(F)F)oc3c2C(=O)c2ccccc2C3=O)cc1 | 2.32 | > 10 µM (inactive)
15 | O=C(O)Cn1c(SCCOc2ccccc2F)nc2ccccc21 | > 10 | > 10 µM (inactive)
16 | Cc1nn(-c2ccccn2)c(C)c1Oc1ccccc1O | > 10 | > 10 µM (inactive)
17 | COc1ccccc1N1CCN(CC(O)c2ccc3cc[nH]c3c2)CC1 (stereo unspecified) | > 10 | > 10 µM (inactive)
18 | O=C(NCc1ccc2c(c1)OCO2)C1CCCN1C(=O)Nc1ccccc1 (stereo unspecified) | > 10 | > 10 µM (inactive)
19 | COc1cc(CN2CCN(c3ccc(C)cc3)CC2)cc([N+](=O)[O-])c1O | > 10 | > 10 µM (inactive)
20 | CCCCC1(CCCC)C(=O)NC(=Nc2cccc(C)c2)NC1=O | > 10 | > 10 µM (inactive)

Row | Compound | IC50 [1] [µM] | IC50 [2]
21 | Cc1ccc(N2CCN(S(=O)(=O)N3CCCCCC3)CC2)cc1Cl | > 10 | > 10 µM (inactive)
22 | CCc1ccc(N(C(=O)c2csnn2)C(C(=O)NC(C)(C)C)c2ccncc2)cc1 (stereo unspecified) | > 10 | > 10 µM (inactive)
23 | CCN(CC)c1nc2cc(OC)ccc2cc1C#N | > 10 | > 10 µM (inactive)
24 | CCOc1cccc(C(=O)Nc2cccnc2)c1 | > 10 | > 10 µM (inactive)
25 | CC(=O)Nc1ccccc1NS(=O)(=O)c1ccc(Cl)cc1 | > 10 | > 10 µM (inactive)
26 | Cc1c(Cl)c([N+](=O)[O-])nn1Cc1ccc(C(=O)N/N=C\c2cccc(Br)c2)o1 | > 10 | > 10 µM (inactive)
27 | Fc1ccc(Cn2nnc(-c3ccc(CN4CCOCC4)cc3)n2)cc1 | > 10 | > 10 µM (inactive)
28 | ON=Cc1cccn1-c1ccccc1 | > 10 | > 10 µM (inactive)
29 | Clc1ccc(-c2cnc(Oc3ccccc3)nc2)cc1 | > 10 | > 10 µM (inactive)
30 | Cc1cc(NCCCN2CCOCC2)n2ncc(-c3ccc(Cl)cc3)c2n1 | > 10 | > 10 µM (inactive)
31 | O=[N+]([O-])c1cc(C(F)(F)F)ccc1N/N=C/c1cc2ccccc2nc1Cl | > 10 | > 10 µM (inactive)
32 | O=C(NCCc1ccccc1)C1CCN(S(=O)(=O)N2CCCC2)CC1 | > 10 | > 10 µM (inactive)
33 | O=C(C1CCN(S(=O)(=O)c2cccs2)CC1)N1CCCCCC1 | > 10 | > 10 µM (inactive)
34 | c1coc(CNc2nc(N3CCCCC3)nc3ccccc23)c1 | > 10 | > 10 µM (inactive)
35 | COc1ccc(CN(C(=O)Cc2cccs2)C(C(=O)NC2CCCC2)c2ccncc2)cc1 (stereo unspecified) | > 10 | > 10 µM (inactive)
36 | FC(F)(F)COc1nc(N2CCCCC2)nc(N2CCNCC2)n1 | > 10 | > 10 µM (inactive)
37 | O=C(Nc1cc(C(F)(F)F)ccc1-n1cncn1)c1ccc(-c2ccccc2)cc1 | > 10 | > 10 µM (inactive)
38 | COC(=O)C1=CN(CCCN2CCCC2=O)C=C(C(=O)OC)C1c1ccccc1C(F)(F)F | > 10 | > 10 µM (inactive)
39 | COc1ccc(Nc2nc(N)nc(CSc3nnc(N)s3)n2)cc1 | > 10 | > 10 µM (inactive)
40 | O=C(NCc1ccc2c(c1)OCO2)c1ccc(CS(=O)(=O)c2cccc(C(F)(F)F)c2)o1 | > 10 | > 10 µM (inactive)

Row | Compound | IC50 [1] [µM] | IC50 [2]
41 | Cc1ccc(C(=O)c2c(NC(=O)c3ccncc3)sc3c2CCCC3)cc1 | > 10 | > 10 µM (inactive)
42 | CCCCCOc1ccc(Cl)cc1CN1CCOCC1 | > 10 | > 10 µM (inactive)
43 | Cc1ccc(S(=O)(=O)N2CCN(C3CCN(Cc4ccccc4)CC3)CC2)cc1 | > 10 | > 10 µM (inactive)
44 | O=C1NC2(Nc3ccccc31)C(=O)Nc1ccccc12 (stereo unspecified) | > 10 | > 10 µM (inactive)
45 | CCOC(=O)c1c(-n2c(C)cc(C=C3C(=O)NC(=S)NC3=O)c2C)sc2c1CCCC2 | 11.5 | > 10 µM (inactive)
46 | CCC(OC(=O)C(NC(=O)c1ccccc1)c1ccccc1)C(=O)Nc1cc(C)on1 (stereo unspecified) | > 10 | > 10 µM (inactive)
47 | CCOc1cc(/C=C\[N+](=O)[O-])ccc1OCC(=O)Nc1ccccc1C | > 10 | > 10 µM (inactive)
48 | O=C(Cc1cccs1)Nc1nc2c(s1)CCCC2 | > 10 | > 10 µM (inactive)
49 | Cc1ccnc(N2C(=O)c3cccc4c([N+](=O)[O-])ccc(c34)C2=O)c1 | 4.22 | 7.94 µM (inactive)
50 | COCCNc1cc(C)nc2c3c(C)cc(C)nc3nn12 | > 10 | > 10 µM (inactive)
51 | Cc1ccc(SC(=O)COc2ccc(C)c(C)c2)cc1 | > 10 | > 10 µM (inactive)
52 | CC(NC(=O)CSc1nc2c(cc1C#N)CN(C)CC2)c1ccccc1 (stereo unspecified) | > 10 | > 10 µM (inactive)
53 | O=C(NC1CCCC1)C(c1ccsc1)N(C(=O)Cc1cccs1)c1ccc(F)cc1 (stereo unspecified) | > 10 | > 10 µM (inactive)
54 | CCC(=O)c1ccc(N2CCN(C(=O)c3ccc(Br)cc3)CC2)c(F)c1 | > 10 | > 10 µM (inactive)
55 | Cc1cc([N+](=O)[O-])c(-c2ccc(/C=N/n3cnnc3)o2)cc1Cl | 0.134 | 0.526 µM (inactive)
56 | Cn1nnc2cc(C(=O)Nc3cccnc3)ccc21 | > 10 | > 10 µM (inactive)
57 | O=S(=O)(c1ccc(Cl)cc1)N1CCN(C2CCN(Cc3ccccc3)CC2)CC1 | > 10 | > 10 µM (inactive)
58 | COc1cccc(OCCCCN2CC(C)OC(C)C2)c1 (stereo unspecified) | > 10 | > 10 µM (inactive)
